Laboratory results: ChEMBL document CHEMBL1150104, “Isolation and structure identification of an active DNA strand-scission agent, (+)-3,4-di-hydroxy-8,9-methylenedioxypterocarpan” (1995)
≈ marks a conversion by molar mass, not a printed value. Calls of active or inactive are those of the source. The rule behind the calls is not given here.

Columns and labels:
Nucleic Acid [1] = assay: Induction of DNA strand scission activity in Escherichia coli pBR322 at 25 ug/mL by electrophoresis; assay type: nucleic-acid assay
KB = assay: Cytotoxicity against human KB cells; assay type: functional; conditions: read-out: ED50 (the source's name)
Nucleic Acid [2] = assay: Induction of DNA strand scission activity in Escherichia coli pBR322 at 0.1 ug/mL by electrophoresis; assay type: nucleic-acid assay

In the case of `COc1ccc2c(c1O)OC[C@@H]1c3cc4c(cc3O[C@H]21)OCO4`, the Activity (Nucleic Acid [1]) is reported as “inactive” and the EC50 (KB) is reported as 4 µg/mL (≈ 12.7 µM).
With `Oc1ccc2c(c1O)OC[C@@H]1c3cc4c(cc3O[C@H]21)OCO4` the Activity (Nucleic Acid [1]) was “Active” and the EC50 (KB) was 0.9 µg/mL (≈ 3 µM).
BLEOMYCIN SULFATE was tested, and the Activity (Nucleic Acid [2]) was “Active”.
`Oc1ccc2c(c1)OC[C@@H]1c3cc4c(cc3O[C@H]21)OCO4` [(+)-MAACKIAIN] was tested, and the Activity (Nucleic Acid [1]) was “inactive” and the EC50 (KB) was 5.6 µg/mL (≈ 19.7 µM).
